Read-outs that look alike come from different tables or passages of the source.

The test concerns the target hNav1.5 Peak INa (Homo sapiens, UniProt Q14524). The experiment in a line: Peak INa screening assay (tonic block and use-dependent block). In kind it is cell-based. As to the method:
The assay uses an HEK293 (human embryonic kidney) cell line heterologously expressing the wild-type human cardiac sodium channel, hNav1.5, purchased from Millipore (Billerica, Mass.). No beta subunits were coexpressed with the Na channel alpha subunit. Cells are maintained with standard tissue culture procedures and stable channel expression is maintained with 400 μg/mL Geneticin in the culture medium. […] Experiments are carried out at 23-25° C. […] Currents through open sodium channels are automatically recorded and stored in the Sophion Bioscience Oracle database (Sophion Bioscience, Copenhagen, Denmark). Analysis is performed using QPatch Assay and database software and data are compiled in Excel. Compound stocks are routinely made by the Gilead Sample Bank in plastic vials to 10 mM in dimethyl sulfoxide (DMSO). […] Stocks are sonicated as necessary. […] Compounds are diluted in extracellular solution to 1 μM in glass vials and then transferred to glass well plates before robotic addition to the cells. […] Good separation between the concentrations of test compound to reduce late and peak INa is beneficial to enable separation of the desired effect to reduce late INa-induced electrical and mechanical dysfunction from the undesired effect to reduce peak INa, which can lead to slowing or block of conduction of electrical excitation in the heart. It is contemplated that the compounds of Formula I avoid significant block of peak INa. […] Analysis of peak INa generally requires correction for rundown before determining the % block of peak current by the tested compound. […] Use-dependent block refers to the accumulation of block with increased frequency of channel activation. […] It is therefore expected that reduction of peak INa by compounds of this disclosure will be greater at high heart rates, such as those during tachyarrhythmias, than at normal heart rates. […] The intracellular solution used for the Peak INa assay is the same as outlined for the Late INa assay (see above). […] After establishing the whole cell recording configuration, channels were stimulated to open with low frequency stimulation (0.1 Hz) for 7 minutes so that the recording can be monitored and the extent to which the recording has stabilized can be assessed. […] Both TB and UDB were analyzed by incorporating rundown correction for the peak INa and UDB as calculated by compensating for the small use-dependent effect of the stimulation protocol on peak INa in the absence of compound.

Sequence of hNav1.5 Peak INa (Q14524 whole entry): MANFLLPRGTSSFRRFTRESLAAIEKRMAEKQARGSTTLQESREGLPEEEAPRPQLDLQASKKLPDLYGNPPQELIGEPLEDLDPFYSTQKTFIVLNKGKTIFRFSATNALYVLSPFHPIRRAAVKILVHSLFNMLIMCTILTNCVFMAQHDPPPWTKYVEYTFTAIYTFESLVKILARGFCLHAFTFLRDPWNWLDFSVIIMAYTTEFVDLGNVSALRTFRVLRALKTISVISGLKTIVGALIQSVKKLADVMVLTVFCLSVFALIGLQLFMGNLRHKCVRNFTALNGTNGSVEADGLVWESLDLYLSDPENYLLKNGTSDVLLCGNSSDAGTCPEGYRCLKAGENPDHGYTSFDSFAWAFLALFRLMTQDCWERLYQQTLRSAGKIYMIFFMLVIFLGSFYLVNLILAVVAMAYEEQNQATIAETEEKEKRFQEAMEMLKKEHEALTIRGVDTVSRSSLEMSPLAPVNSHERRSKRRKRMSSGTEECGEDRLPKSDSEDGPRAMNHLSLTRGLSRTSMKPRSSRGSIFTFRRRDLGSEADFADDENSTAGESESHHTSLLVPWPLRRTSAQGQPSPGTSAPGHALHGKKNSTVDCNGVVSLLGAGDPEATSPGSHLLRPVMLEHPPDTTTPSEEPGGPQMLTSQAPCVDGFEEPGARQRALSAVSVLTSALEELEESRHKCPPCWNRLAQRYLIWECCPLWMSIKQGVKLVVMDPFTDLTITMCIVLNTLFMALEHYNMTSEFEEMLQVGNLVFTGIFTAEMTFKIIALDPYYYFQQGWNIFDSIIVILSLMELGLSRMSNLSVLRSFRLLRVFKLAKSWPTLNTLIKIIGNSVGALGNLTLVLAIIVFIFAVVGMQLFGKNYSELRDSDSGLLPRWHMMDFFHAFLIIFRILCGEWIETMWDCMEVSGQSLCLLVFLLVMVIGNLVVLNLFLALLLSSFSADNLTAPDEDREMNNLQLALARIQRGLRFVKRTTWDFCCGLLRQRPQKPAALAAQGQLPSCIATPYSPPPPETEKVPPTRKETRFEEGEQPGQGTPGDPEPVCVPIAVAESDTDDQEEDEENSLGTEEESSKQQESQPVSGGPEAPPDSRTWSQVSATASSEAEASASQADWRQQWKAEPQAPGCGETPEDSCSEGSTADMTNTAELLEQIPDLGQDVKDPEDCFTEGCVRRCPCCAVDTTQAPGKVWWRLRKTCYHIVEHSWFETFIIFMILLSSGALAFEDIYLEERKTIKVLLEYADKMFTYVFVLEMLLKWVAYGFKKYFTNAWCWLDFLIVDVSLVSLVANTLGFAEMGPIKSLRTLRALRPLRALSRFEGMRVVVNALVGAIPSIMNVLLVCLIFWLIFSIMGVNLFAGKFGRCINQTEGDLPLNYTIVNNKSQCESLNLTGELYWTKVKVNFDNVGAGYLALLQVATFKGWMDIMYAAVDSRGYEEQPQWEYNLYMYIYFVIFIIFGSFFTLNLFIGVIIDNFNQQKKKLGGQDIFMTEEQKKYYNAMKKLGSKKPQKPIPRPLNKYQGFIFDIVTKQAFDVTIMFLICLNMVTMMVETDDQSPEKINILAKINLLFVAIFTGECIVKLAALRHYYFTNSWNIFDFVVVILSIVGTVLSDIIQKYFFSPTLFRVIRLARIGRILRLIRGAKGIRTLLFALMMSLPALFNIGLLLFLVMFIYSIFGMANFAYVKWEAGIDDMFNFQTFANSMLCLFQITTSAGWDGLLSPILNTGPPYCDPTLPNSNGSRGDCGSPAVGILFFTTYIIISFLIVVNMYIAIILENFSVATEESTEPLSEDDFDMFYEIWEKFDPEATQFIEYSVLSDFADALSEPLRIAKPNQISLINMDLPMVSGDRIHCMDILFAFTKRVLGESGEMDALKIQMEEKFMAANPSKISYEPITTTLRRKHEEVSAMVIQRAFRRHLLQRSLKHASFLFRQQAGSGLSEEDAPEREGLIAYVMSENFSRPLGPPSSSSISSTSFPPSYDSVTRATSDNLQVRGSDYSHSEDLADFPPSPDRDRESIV

Regarding `FC(F)(F)c1ccc(-c2ccc3c(c2)C(NCc2ccccc2)=NCCO3)cc1` [II-2, N-benzyl-7-(4-(trifluoromethyl)phenyl)-2,3-dihydrobenzo[f][1,4]oxazepin-5-amine], the inhibition at 1 µM by setting is: (at 1 μM, 3 Hz stimulation, holding potential −100 mV, read-out: Peak UDB (use-dependent block of peak INa) % Inhibition) 57%; (read-out: Peak TB (tonic block of peak INa) % Inhibition) 27%.

The inhibition is the percentage by which the read-out fell short of the control.
